Source: ChEMBL document CHEMBL1135882, “Synthesis and biological evaluation of 2-substituted 3beta-tolyltropane derivatives at dopamine, serotonin, and norepinephrine transporters” (J Med Chem, 2002)

Legend:
[1] = molecular target: Sodium-dependent dopamine transporter (Rattus norvegicus, UniProt P23977); test: Affinity for dopamine transporter was assessed by the ability to displace [3H]WIN-35428 from rat caudate-putamen tissue; format: tissue-based
Rattus norvegicus [2] = test: Percent maximum effect at 89.3 mmol/kg dose that causes compound-appropriate response in rats, trained to discriminate cocaine; format: functional
Rattus norvegicus [3] = species on record: Rattus norvegicus; test: Ability to inhibit [3H]dopamine uptake was measured in a chopped tissue assay; format: functional, organism-based
[4] = molecular target: Norepinephrine transporter (Rattus norvegicus, UniProt Q9WTR4); test: Binding affinity for Norepinephrine transporter is assessed from the ability to displace [3H]nisoxetine from rat frontal cortex; format: tissue-based
Chain of Norepinephrine transporter (Q9WTR4 whole entry): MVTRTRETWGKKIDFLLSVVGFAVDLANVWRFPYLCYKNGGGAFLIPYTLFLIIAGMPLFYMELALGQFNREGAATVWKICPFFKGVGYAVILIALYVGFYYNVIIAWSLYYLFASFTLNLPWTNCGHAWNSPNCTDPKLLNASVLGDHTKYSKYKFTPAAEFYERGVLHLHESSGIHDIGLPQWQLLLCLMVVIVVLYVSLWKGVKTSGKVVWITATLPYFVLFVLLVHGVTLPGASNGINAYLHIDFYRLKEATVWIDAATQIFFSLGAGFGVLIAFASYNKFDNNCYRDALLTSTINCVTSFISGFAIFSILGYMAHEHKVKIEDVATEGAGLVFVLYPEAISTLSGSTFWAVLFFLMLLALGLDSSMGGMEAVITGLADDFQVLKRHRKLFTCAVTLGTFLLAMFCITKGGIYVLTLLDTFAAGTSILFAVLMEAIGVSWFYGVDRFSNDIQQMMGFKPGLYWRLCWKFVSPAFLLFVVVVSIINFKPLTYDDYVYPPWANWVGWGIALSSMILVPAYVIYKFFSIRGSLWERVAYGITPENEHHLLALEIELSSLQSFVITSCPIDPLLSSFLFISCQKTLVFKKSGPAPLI

Rattus norvegicus [5] = test: Percent maximum effect at 39.0 mmol/kg dose that causes compound-appropriate response in rats, trained to discriminate cocaine; format: functional
Rattus norvegicus [6] = test: Percent maximum effect at 37.7 mmol/kg dose that causes compound-appropriate response in rats, trained to discriminate cocaine; format: functional
Rattus norvegicus [7] = species on record: Rattus norvegicus; test: Effective dose that causes 50 percent of compound-appropriate response in rats, trained to discriminate cocaine; Value ranges from (22-51.4), effect is nonsignificant at this dose; format: functional
[8] = molecular target: Sodium-dependent serotonin transporter (Rattus norvegicus, UniProt P31652); test: Binding affinity for serotonin transporter is assessed from the ability to displace [3H]citalopram from rat brain.
Chain of Sodium-dependent serotonin transporter (P31652 whole entry): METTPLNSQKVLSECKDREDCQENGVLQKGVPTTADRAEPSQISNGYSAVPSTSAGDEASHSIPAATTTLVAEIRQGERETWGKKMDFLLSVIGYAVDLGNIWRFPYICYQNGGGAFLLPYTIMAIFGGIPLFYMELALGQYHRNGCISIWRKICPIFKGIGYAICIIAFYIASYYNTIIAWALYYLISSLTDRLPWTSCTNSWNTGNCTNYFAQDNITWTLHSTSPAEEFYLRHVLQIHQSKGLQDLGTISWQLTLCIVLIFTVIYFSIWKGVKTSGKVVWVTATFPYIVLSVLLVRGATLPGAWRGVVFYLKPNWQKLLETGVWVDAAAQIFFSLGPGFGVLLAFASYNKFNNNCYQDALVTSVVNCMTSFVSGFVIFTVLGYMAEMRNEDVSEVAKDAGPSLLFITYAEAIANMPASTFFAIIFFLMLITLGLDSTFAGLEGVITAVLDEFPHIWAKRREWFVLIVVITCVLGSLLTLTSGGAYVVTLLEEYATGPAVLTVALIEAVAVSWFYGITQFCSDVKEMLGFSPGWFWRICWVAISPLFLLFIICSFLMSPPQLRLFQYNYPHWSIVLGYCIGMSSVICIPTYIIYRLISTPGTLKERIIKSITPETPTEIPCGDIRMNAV

Rattus norvegicus [9] = test: Percent maximum effect at 54.9 mmol/kg dose that causes compound-appropriate response in rats, trained to discriminate cocaine; format: functional
Rattus norvegicus [10] = test: Percent maximum effect at 45.7 mmol/kg dose that causes compound-appropriate response in rats, trained to discriminate cocaine; format: functional
Rattus norvegicus [11] = species on record: Rattus norvegicus; test: Effective dose that causes 50 percent of compound-appropriate response in rats, trained to discriminate cocaine; Value ranges from (17.1-1.22)x10E5, effect is nonsignificant at this dose; format: functional
Rattus norvegicus [12] = test: Percent maximum effect at 2.69 mmol/kg dose that causes compound-appropriate response in rats, trained to discriminate cocaine; format: functional
Rattus norvegicus [13] = species on record: Rattus norvegicus; test: Effective dose that causes 50 percent of compound-appropriate response in rats, trained to discriminate cocaine; NS means Nonsignificant linear regression.; format: functional, organism-based
Rattus norvegicus [14] = species on record: Rattus norvegicus; test: Effective dose that causes 50 percent of compound-appropriate response in rats, trained to discriminate cocaine; Value ranges from (9.07-256), effect is nonsignificant at this dose; format: functional
Rattus norvegicus [15] = test: Percent maximum effect at 27.0 mmol/kg dose that causes compound-appropriate response in rats, trained to discriminate cocaine; format: functional

Chain of Sodium-dependent dopamine transporter (P23977 whole entry): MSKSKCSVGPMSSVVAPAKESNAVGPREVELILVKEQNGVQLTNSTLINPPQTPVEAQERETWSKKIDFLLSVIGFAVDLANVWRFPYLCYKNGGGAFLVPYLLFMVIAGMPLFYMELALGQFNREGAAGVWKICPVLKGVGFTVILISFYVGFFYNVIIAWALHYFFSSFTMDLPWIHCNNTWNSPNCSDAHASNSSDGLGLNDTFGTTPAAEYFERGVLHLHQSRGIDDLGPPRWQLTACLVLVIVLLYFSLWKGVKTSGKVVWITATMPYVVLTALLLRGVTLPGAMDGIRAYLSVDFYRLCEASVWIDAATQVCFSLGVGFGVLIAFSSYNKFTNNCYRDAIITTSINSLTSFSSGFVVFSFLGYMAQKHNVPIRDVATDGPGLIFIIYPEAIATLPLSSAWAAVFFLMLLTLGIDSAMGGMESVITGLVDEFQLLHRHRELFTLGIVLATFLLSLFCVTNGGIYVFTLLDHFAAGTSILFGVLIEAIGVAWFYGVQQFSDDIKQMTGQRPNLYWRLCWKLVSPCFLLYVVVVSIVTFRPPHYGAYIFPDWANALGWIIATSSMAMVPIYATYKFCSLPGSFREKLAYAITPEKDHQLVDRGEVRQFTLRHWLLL

COC(=O)/C=C/C1C(c2ccc(C)cc2)C[C@H]2CCC1N2C (some centres undefined)
Ki [1]: 123 nM
Max effect (Rattus norvegicus [2]): 69.9%
IC50 (Rattus norvegicus [3]): 311 nM

Cc1ccc(CC2C(c3ccc(C)cc3)C[C@H]3CCC2N3C)cc1 (some centres undefined)
Ki [4]: 271 nM
Ki [1]: 11 nM
Max effect (Rattus norvegicus [5]): 82.8%
IC50 (Rattus norvegicus [3]): 16 nM

Cc1ccc([C@@H](O)[C@@H]2C3CC[C@H](C[C@@H]2c2ccc(C)cc2)N3C)cc1
Max effect (Rattus norvegicus [6]): 66.7%
Ki [4]: 214 nM
Ki [1]: 85 nM
ED50 (Rattus norvegicus [7]): 31400 µmol/kg
Ki [8]: 70 nM
IC50 (Rattus norvegicus [3]): 107 nM

Cc1ccc(C2C[C@H]3CCC(C2CCCO)N3C)cc1 (some centres undefined)
Max effect (Rattus norvegicus [9]): 93.9%
Ki [1]: 136 nM
IC50 (Rattus norvegicus [3]): 266 nM

Cc1ccc([C@H]2C[C@H]3CC[C@H]([C@H]2[C@@H](O)c2ccc(C)cc2)N3C)cc1
Max effect (Rattus norvegicus [10]): 97.9%
ED50 (Rattus norvegicus [11]): 61600 µmol/kg
Ki [4]: 464 nM
Ki [1]: 14 nM
Ki [8]: 66 nM
IC50 (Rattus norvegicus [3]): 144 nM

Cc1ccc([C@H]2C[C@H]3CC[C@H]([C@@H]2[C@@H](O)c2ccc(C)cc2)N3C)cc1
Ki [1]: 25 nM
IC50 (Rattus norvegicus [3]): 58 nM

Cc1ccc(C2C[C@H]3CCC([C@@H]2CO)N3C)cc1 (some centres undefined)
Max effect (Rattus norvegicus [12]): 2.96%
Ki [4]: 16800 nM
Ki [1]: 3490 nM
NS (Rattus norvegicus [13]): Nonsignificant linear regression
Ki [8]: 16000 nM
ED50 (Rattus norvegicus [14]): 20600 µmol/kg
IC50 (Rattus norvegicus [3]): 4040 nM

Cc1ccc(C(=O)C2C(c3ccc(C)cc3)CC3CCC2N3C)cc1 (centres undefined)
Max effect (Rattus norvegicus [15]): 100%
Ki [1]: 17 nM
IC50 (Rattus norvegicus [3]): 82 nM
